According to PubChem BioAssay (NCI):
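A five-concentration, 48-hour dose response in 96-well plates underlies each endpoint, interpolated linearly between surrounding concentrations. At the GI50, growth is halved. TGI is the concentration that stops growth completely.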

What was measured:
Experiment in all cases: DTP human tumour cell line panel, 48 h
786-0 renal = system: 786-0 renal
A498 renal = system: A498 renal
A549 NSCLC = system: A549 NSCLC
ACHN renal = system: ACHN renal
CAKI-1 renal = system: CAKI-1 renal
CCRF-CEM leukemia = system: CCRF-CEM leukemia
COLO 205 colon = system: COLO 205 colon
DLD-1 colon = system: DLD-1 colon
DMS 273 small cell lung = system: DMS 273 small cell lung
EKVX NSCLC = system: EKVX NSCLC
HCC-2998 colon = system: HCC-2998 colon
HCT-116 colon = system: HCT-116 colon
HCT-15 colon = system: HCT-15 colon
HL-60(TB) leukemia = system: HL-60(TB) leukemia
HOP-18 NSCLC = system: HOP-18 NSCLC
HOP-62 NSCLC = system: HOP-62 NSCLC
HOP-92 NSCLC = system: HOP-92 NSCLC
HT29 colon = system: HT29 colon
IGROV1 ovarian = system: IGROV1 ovarian
K-562 leukemia = system: K-562 leukemia
KM12 colon = system: KM12 colon
KM20L2 colon = system: KM20L2 colon
LOX IMVI melanoma = system: LOX IMVI melanoma
LXFL 529 NSCLC = system: LXFL 529 NSCLC
M14 melanoma = system: M14 melanoma
M19-MEL melanoma = system: M19-MEL melanoma
MALME-3M melanoma = system: MALME-3M melanoma
MOLT-4 leukemia = system: MOLT-4 leukemia
NCI-H226 lung = system: NCI-H226 lung
NCI-H23 lung = system: NCI-H23 lung
NCI-H460 lung = system: NCI-H460 lung
NCI-H522 lung = system: NCI-H522 lung
OVCAR-3 ovarian = system: OVCAR-3 ovarian
OVCAR-4 ovarian = system: OVCAR-4 ovarian
OVCAR-5 ovarian = system: OVCAR-5 ovarian
OVCAR-8 ovarian = system: OVCAR-8 ovarian
RPMI-8226 leukemia = system: RPMI-8226 leukemia
RXF 393 renal = system: RXF 393 renal
SF-268 CNS = system: SF-268 CNS
SF-295 CNS = system: SF-295 CNS
SF-539 CNS = system: SF-539 CNS
SK-MEL-2 melanoma = system: SK-MEL-2 melanoma
SK-MEL-28 melanoma = system: SK-MEL-28 melanoma
SK-MEL-5 melanoma = system: SK-MEL-5 melanoma
SK-OV-3 ovarian = system: SK-OV-3 ovarian
SN12C renal = system: SN12C renal
SNB-19 CNS = system: SNB-19 CNS
SNB-75 CNS = system: SNB-75 CNS
SNB-78 CNS = system: SNB-78 CNS
SW-620 colon = system: SW-620 colon
TK-10 renal = system: TK-10 renal
U251 CNS = system: U251 CNS
UACC-257 melanoma = system: UACC-257 melanoma
UACC-62 melanoma = system: UACC-62 melanoma
UO-31 renal = system: UO-31 renal
DMS 114 small cell lung = system: DMS 114 small cell lung
XF 498 CNS = system: XF 498 CNS

COC(=O)C[CH](C(=O)OC)[Ge]([CH3])([CH3])[S]c1ccccc1 (stereo unspecified)
GI50 (786-0 renal): 15.9 µM
TGI (786-0 renal): 30.7 µM
GI50 (A498 renal): 19.7 µM
TGI (A498 renal): 60.9 µM
GI50 (A549 NSCLC): 43.9 µM
TGI (A549 NSCLC): > 100 µM
GI50 (ACHN renal): 18.4 µM
TGI (ACHN renal): 36.6 µM
GI50 (CAKI-1 renal): 20.8 µM
TGI (CAKI-1 renal): 47.8 µM
GI50 (CCRF-CEM leukemia): 1.67 µM
TGI (CCRF-CEM leukemia): 6.25 µM
GI50 (COLO 205 colon): 13.9 µM
TGI (COLO 205 colon): 27.1 µM
GI50 (DLD-1 colon): 22 µM
TGI (DLD-1 colon): 42.4 µM
GI50 (DMS 273 small cell lung): 12.6 µM
TGI (DMS 273 small cell lung): 29.9 µM
GI50 (EKVX NSCLC): 16.1 µM
TGI (EKVX NSCLC): 75.2 µM
GI50 (HCC-2998 colon): 40.4 µM
TGI (HCC-2998 colon): > 100 µM
GI50 (HCT-116 colon): 27.9 µM
TGI (HCT-116 colon): 58.2 µM
GI50 (HCT-15 colon): 13.2 µM
TGI (HCT-15 colon): 27.6 µM
GI50 (HL-60(TB) leukemia): 3 µM
TGI (HL-60(TB) leukemia): 17.5 µM
GI50 (HOP-18 NSCLC): > 100 µM
TGI (HOP-18 NSCLC): > 100 µM
GI50 (HOP-62 NSCLC): 22.4 µM
TGI (HOP-62 NSCLC): 50.5 µM
GI50 (HOP-92 NSCLC): 48.6 µM
TGI (HOP-92 NSCLC): 95.8 µM
GI50 (HT29 colon): 18.6 µM
TGI (HT29 colon): 38.5 µM
GI50 (IGROV1 ovarian): 0.463 µM
TGI (IGROV1 ovarian): 2.2 µM
GI50 (K-562 leukemia): 17.4 µM
TGI (K-562 leukemia): > 100 µM
GI50 (KM12 colon): 17 µM
TGI (KM12 colon): 46.2 µM
GI50 (KM20L2 colon): 26.7 µM
TGI (KM20L2 colon): 67.9 µM
GI50 (LOX IMVI melanoma): 4.92 µM
TGI (LOX IMVI melanoma): 17.1 µM
GI50 (LXFL 529 NSCLC): 17.5 µM
TGI (LXFL 529 NSCLC): 36 µM
GI50 (M14 melanoma): 21.5 µM
TGI (M14 melanoma): 57.5 µM
GI50 (M19-MEL melanoma): 16.9 µM
TGI (M19-MEL melanoma): 54.7 µM
GI50 (MALME-3M melanoma): > 100 µM
TGI (MALME-3M melanoma): > 100 µM
GI50 (MOLT-4 leukemia): 3.37 µM
TGI (MOLT-4 leukemia): 18.4 µM
GI50 (NCI-H226 lung): 13.8 µM
TGI (NCI-H226 lung): 35.1 µM
GI50 (NCI-H23 lung): 22.9 µM
TGI (NCI-H23 lung): 64.7 µM
GI50 (NCI-H460 lung): 15.5 µM
TGI (NCI-H460 lung): 28.8 µM
GI50 (NCI-H522 lung): 2.94 µM
TGI (NCI-H522 lung): 10.3 µM
GI50 (OVCAR-3 ovarian): 15.1 µM
TGI (OVCAR-3 ovarian): 38.8 µM
GI50 (OVCAR-4 ovarian): 18.1 µM
TGI (OVCAR-4 ovarian): 72.4 µM
GI50 (OVCAR-5 ovarian): 18.7 µM
TGI (OVCAR-5 ovarian): 42.6 µM
GI50 (OVCAR-8 ovarian): 19.3 µM
TGI (OVCAR-8 ovarian): 76.9 µM
GI50 (RPMI-8226 leukemia): 17.1 µM
TGI (RPMI-8226 leukemia): 56.7 µM
GI50 (RXF 393 renal): 37.9 µM
TGI (RXF 393 renal): 55.9 µM
GI50 (SF-268 CNS): 18.7 µM
TGI (SF-268 CNS): 64.1 µM
GI50 (SF-295 CNS): 12.6 µM
TGI (SF-295 CNS): 40 µM
GI50 (SF-539 CNS): 22.1 µM
TGI (SF-539 CNS): 39.7 µM
GI50 (SK-MEL-2 melanoma): 16.2 µM
TGI (SK-MEL-2 melanoma): > 100 µM
GI50 (SK-MEL-28 melanoma): 23.3 µM
TGI (SK-MEL-28 melanoma): 65.7 µM
GI50 (SK-MEL-5 melanoma): 33.1 µM
TGI (SK-MEL-5 melanoma): > 100 µM
GI50 (SK-OV-3 ovarian): 25.8 µM
TGI (SK-OV-3 ovarian): 67 µM
GI50 (SN12C renal): 16 µM
TGI (SN12C renal): 32 µM
GI50 (SNB-19 CNS): 19.5 µM
TGI (SNB-19 CNS): 49.9 µM
GI50 (SNB-75 CNS): 22.1 µM
TGI (SNB-75 CNS): 72.2 µM
GI50 (SNB-78 CNS): 22.1 µM
TGI (SNB-78 CNS): 96.7 µM
GI50 (SW-620 colon): 13 µM
TGI (SW-620 colon): 26.8 µM
GI50 (TK-10 renal): 38.9 µM
TGI (TK-10 renal): > 100 µM
GI50 (U251 CNS): 12 µM
TGI (U251 CNS): 26.2 µM
GI50 (UACC-257 melanoma): 33 µM
TGI (UACC-257 melanoma): > 100 µM
GI50 (UACC-62 melanoma): 15.8 µM
TGI (UACC-62 melanoma): 36.2 µM
GI50 (UO-31 renal): 7.06 µM
TGI (UO-31 renal): 21 µM

CC(=O)NS(=O)(=O)c1ccc(NC(=O)COC(=O)c2cccc3c(=O)c4ccccc4[nH]c23)cc1
TGI (786-0 renal): > 100 µM
TGI (A549 NSCLC): > 100 µM
TGI (ACHN renal): > 100 µM
TGI (CCRF-CEM leukemia): > 100 µM
TGI (COLO 205 colon): > 100 µM
TGI (DMS 114 small cell lung): > 100 µM
TGI (DMS 273 small cell lung): > 100 µM
TGI (EKVX NSCLC): > 100 µM
TGI (HCT-116 colon): > 100 µM
TGI (HCT-15 colon): > 100 µM
TGI (HL-60(TB) leukemia): > 100 µM
TGI (HOP-18 NSCLC): > 100 µM
TGI (HOP-62 NSCLC): > 100 µM
TGI (HT29 colon): > 100 µM
TGI (IGROV1 ovarian): > 100 µM
TGI (K-562 leukemia): > 100 µM
TGI (KM12 colon): > 100 µM
TGI (LOX IMVI melanoma): > 100 µM
TGI (M14 melanoma): > 100 µM
TGI (M19-MEL melanoma): > 100 µM
TGI (MALME-3M melanoma): > 100 µM
TGI (MOLT-4 leukemia): > 100 µM
TGI (NCI-H226 lung): > 100 µM
TGI (NCI-H23 lung): > 100 µM
TGI (NCI-H460 lung): > 100 µM
TGI (NCI-H522 lung): > 100 µM
TGI (OVCAR-3 ovarian): > 100 µM
TGI (OVCAR-8 ovarian): > 100 µM
TGI (RPMI-8226 leukemia): > 100 µM
TGI (RXF 393 renal): > 100 µM
TGI (SF-295 CNS): > 100 µM
TGI (SF-539 CNS): > 100 µM
TGI (SK-MEL-2 melanoma): > 100 µM
TGI (SK-MEL-28 melanoma): > 100 µM
TGI (SK-MEL-5 melanoma): > 100 µM
TGI (SK-OV-3 ovarian): > 100 µM
TGI (SN12C renal): > 100 µM
TGI (SNB-19 CNS): > 100 µM
TGI (SNB-75 CNS): > 100 µM
TGI (SW-620 colon): > 100 µM
TGI (TK-10 renal): > 100 µM
TGI (U251 CNS): > 100 µM
TGI (UACC-257 melanoma): > 100 µM
TGI (UACC-62 melanoma): > 100 µM
TGI (UO-31 renal): > 100 µM
TGI (XF 498 CNS): > 100 µM
